According to the NIST ThermoML archive (doi:10.1021/je900732r):

Experiment: mn = molality of the nth substance listed, in mol/kg
Conditions: 101 kPa, Liquid; for speed of sound: Pulse-echo method

[Ni+2].[O-][Cl+3]([O-])([O-])[O-].[O-][Cl+3]([O-])([O-])[O-] [nickel perchlorate] + CO
Conditions	mass density, 283.15 K [kg/m3]	mass density, 288.15 K [kg/m3]	mass density, 293.15 K [kg/m3]	mass density, 298.15 K [kg/m3]	mass density, 303.15 K [kg/m3]	mass density, 308.15 K [kg/m3]	mass density, 313.15 K [kg/m3]	speed of sound, 298.15 K [m/s]
m1 = 0.04976	810.894	806.238	801.564	796.875	792.174	787.453	782.702	1108.7
m1 = 0.06138	813.322	808.669	804	799.318	794.619	789.897	785.142	1110.3
m1 = 0.07317	815.812	811.165	806.497	801.821	797.126	792.41	787.658	1111.9
m1 = 0.08448	818.152	813.508	808.845	804.169	799.474	794.767	790.033	1113.4
m1 = 0.09669	820.699	816.056	811.401	806.731	802.044	797.34	792.608	1115.2
m1 = 0.1085	823.23	818.592	813.937	809.271	804.589	799.878	795.147	1116.7
m1 = 0.1208	825.801	821.168	816.518	811.856	807.179	802.481	797.759	1118.3
m1 = 0.1447	830.859	826.231	821.586	816.93	812.261	807.568	802.853	1121.7
m1 = 0.1676	835.774	831.151	826.515	821.865	817.198	812.514	807.813	1124.8
m1 = 0.1901	840.657	836.042	831.412	826.771	822.114	817.44	812.739	1127.8
m1 = 0.2123	845.469	840.858	836.233	831.599	826.95	822.28	817.588	1130.6
m1 = 0.2356	850.636	846.033	841.413	836.783	832.14	827.476	822.785	1134.2
